Values after ≈ are worked out from the molar mass of the structure shown. One block for each molecule: values may come before it.
Experiments:
[1] = Toxicity in ip dosed DBA/2 mouse infected with Candida albicans MY1055 administered bid for 2 days or qd for 4 days measured on day 4; type: organism-based; conditions: in vivo
Candida albicans [2] = assay: Synergistic antimicrobial activity against Candida albicans Ca2323 isolate at MIC concentration after 24 hrs at 30 degC in presence of G884; type: functional
Candida albicans [3] = assay: Synergistic antimicrobial activity against Candida albicans Ca2323 isolate at MIC concentration after 24 hrs at 30 degC in presence of G365; type: functional
Saccharomyces cerevisiae [4] = assay: Synergistic antimicrobial activity against Saccharomyces cerevisiae S288c isolate at MIC concentration after 24 hrs at 30 degC in presence of G365; type: functional
Saccharomyces cerevisiae [5] = assay: Synergistic antimicrobial activity against Saccharomyces cerevisiae S288c isolate at MIC concentration after 24 hrs at 30 degC in presence of G884; type: functional
Candida albicans [6] = assay: Antifungal activity against Candida albicans after 24 hrs; type: functional
Cryptococcus neoformans = assay: Antifungal activity against Cryptococcus neoformans after 24 hrs; type: functional
Aspergillus fumigatus [7] = assay: Antifungal activity against Aspergillus fumigatus after 24 hrs; type: functional
Saccharomyces cerevisiae [8] = assay: Inhibition of Saccharomyces cerevisiae AHAS
Candida albicans [9] = assay: Inhibition of Cch1 in Candida albicans isolate 10 assessed as potentiation of fluconazole-induced antifungal activity by measuring fractional inhibitory concentration index after 24 hrs by checkerboard assay
Candida albicans [10] = assay: Inhibition of Cch1 in Candida albicans isolate 16 assessed as potentiation of fluconazole-induced antifungal activity by measuring fractional inhibitory concentration index after 24 hrs by checkerboard assay
Aspergillus fumigatus [11] = assay: Antifungal activity against Aspergillus fumigatus ATCC 46645 after 24 hrs; type: functional; conditions: ATCC 46645, 24 h
Candida albicans [12] = assay: Antifungal activity against fluconazole-susceptable Candida albicans isolate 1 after 24 hrs by microdilution method; type: functional; conditions: isolate 1, 24 h
Candida albicans [13] = assay: Antifungal activity against fluconazole-susceptable Candida albicans isolate 2 after 24 hrs by microdilution method; type: functional; conditions: isolate 2, 24 h
Candida albicans [14] = assay: Antifungal activity against fluconazole-susceptable Candida albicans isolate 3 after 24 hrs by microdilution method; type: functional; conditions: isolate 3, 24 h
Candida albicans [15] = assay: Antifungal activity against fluconazole-susceptable Candida albicans isolate 4 after 24 hrs by microdilution method; type: functional; conditions: isolate 4, 24 h
Candida albicans [16] = assay: Antifungal activity against fluconazole-susceptable Candida albicans isolate 5 after 24 hrs by microdilution method; type: functional; conditions: isolate 5, 24 h
Candida albicans [17] = assay: Antifungal activity against fluconazole-susceptable Candida albicans isolate 6 after 24 hrs by microdilution method; type: functional; conditions: isolate 6, 24 h
Candida albicans [18] = assay: Antifungal activity against fluconazole-susceptable Candida albicans isolate 7 after 24 hrs by microdilution method; type: functional; conditions: isolate 7, 24 h
Candida albicans [19] = assay: Antifungal activity against fluconazole-susceptable Candida albicans isolate 8 after 24 hrs by microdilution method; type: functional; conditions: isolate 8, 24 h
Candida albicans [20] = assay: Antifungal activity against fluconazole-susceptable Candida albicans isolate 9 after 24 hrs by microdilution method; type: functional; conditions: isolate 9, 24 h
Candida albicans [21] = assay: Antifungal activity against fluconazole-susceptable Candida albicans isolate 10 after 24 hrs by microdilution method; type: functional; conditions: isolate 10, 24 h
Candida albicans [22] = assay: Antifungal activity against fluconazole-susceptable Candida albicans isolate 11 after 24 hrs by microdilution method; type: functional; conditions: isolate 11, 24 h
Candida albicans [23] = assay: Antifungal activity against fluconazole-susceptable Candida albicans isolate 12 after 24 hrs by microdilution method; type: functional; conditions: isolate 12, 24 h
Candida albicans [24] = assay: Antifungal activity against fluconazole-susceptable Candida albicans isolate 13 after 24 hrs by microdilution method; type: functional; conditions: isolate 13, 24 h
Candida albicans [25] = assay: Antifungal activity against fluconazole-susceptable Candida albicans isolate 14 after 24 hrs by microdilution method; type: functional; conditions: isolate 14, 24 h
Candida albicans [26] = assay: Antifungal activity against fluconazole-susceptable Candida albicans isolate 15 after 24 hrs by microdilution method; type: functional; conditions: isolate 15, 24 h
Candida albicans [27] = assay: Antifungal activity against fluconazole-resistant Candida albicans isolate 16 after 24 hrs by microdilution method; type: functional; conditions: isolate 16, 24 h
Candida albicans [28] = assay: Antifungal activity against fluconazole-resistant Candida albicans isolate 17 after 24 hrs by microdilution method; type: functional; conditions: isolate 17, 24 h
Candida albicans [29] = assay: Antifungal activity against Candida albicans; type: functional
[30] = Inhibition of Aspergillus fumigatus AGM1
Kluyveromyces marxianus = assay: Antifungal activity against Candida kefyr; type: functional
Candida tropicalis = assay: Antifungal activity against Candida tropicalis KKP 334 by CLSI protocol based method; type: functional
Candida albicans [31] = assay: Antifungal activity against fluconazole-resistant Candida albicans clinical isolate 3034 planktonic cells after 48 hrs by broth microdilution assay; type: functional; conditions: isolate 3034, 48 h
Candida albicans [32] = assay: Antifungal activity against fluconazole-resistant Candida albicans clinical isolate 4617 planktonic cells after 48 hrs by broth microdilution assay; type: functional; conditions: isolate 4617, 48 h
Candida albicans [33] = assay: Antifungal activity against fluconazole-resistant Candida albicans clinical isolate 4639 planktonic cells after 48 hrs by broth microdilution assay; type: functional; conditions: isolate 4639, 48 h
Candida albicans [34] = assay: Antifungal activity against fluconazole-resistant Candida albicans clinical isolate 5106 planktonic cells after 48 hrs by broth microdilution assay; type: functional; conditions: isolate 5106, 48 h
Candida albicans [35] = assay: Antifungal activity against fluconazole-resistant Candida albicans clinical isolate 4380 planktonic cells after 48 hrs by broth microdilution assay; type: functional; conditions: isolate 4380, 48 h
Candida albicans [36] = assay: Antifungal activity against fluconazole-resistant Candida albicans clinical isolate 2440 planktonic cells after 48 hrs by broth microdilution assay; type: functional; conditions: isolate 2440, 48 h
Candida albicans [37] = assay: Antifungal activity against fluconazole-resistant Candida albicans clinical isolate 2307 planktonic cells after 48 hrs by broth microdilution assay; type: functional; conditions: isolate 2307, 48 h
Candida albicans [38] = assay: Antifungal activity against fluconazole-resistant Candida albicans clinical isolate 412 planktonic cells after 48 hrs by broth microdilution assay; type: functional; conditions: isolate 412, 48 h
Candida albicans [39] = assay: Antifungal activity against fluconazole-resistant Candida albicans clinical isolate 1691 planktonic cells after 48 hrs by broth microdilution assay; type: functional; conditions: isolate 1691, 48 h
Candida albicans [40] = assay: Antifungal activity against fluconazole-resistant Candida albicans clinical isolate 3731 planktonic cells after 48 hrs by broth microdilution assay; type: functional; conditions: isolate 3731, 48 h
Candida albicans [41] = assay: Antifungal activity against fluconazole-resistant Candida albicans clinical isolate 6482 planktonic cells after 48 hrs by broth microdilution assay; type: functional; conditions: isolate 6482, 48 h
Candida albicans [42] = assay: Antifungal activity against fluconazole-resistant Candida albicans clinical isolate 6191 planktonic cells after 48 hrs by broth microdilution assay; type: functional; conditions: isolate 6191, 48 h
Candida albicans [43] = assay: Antifungal activity against fluconazole-resistant Candida albicans SC5314 planktonic cells after 48 hrs by broth microdilution assay; type: functional; conditions: SC5314, 48 h
Candida albicans [44] = assay: Antibiofilm activity against Candida albicans SC5314 assessed as inhibition of biofilm formation at 2 to 4 ug/ml after 24 hrs by XTT reduction assay; type: functional
Candida albicans [45] = assay: Antibiofilm activity against Candida albicans SC5314 assessed as inhibition of mature biofilm formation at 8 to 32 ug/ml after 24 hrs by XTT reduction assay; type: functional

SMILES: C=C1C2CC3[C@@H](C(C)C)[C@H](OC(=O)NCCCC)C[C@]3(C)CC2/C(C)=C\CC2[C@H](C)OC(=O)[C@@H](O)[C@@]12O (stereo partly specified)
LD50 at 4 days [1]: > 300 mg/kg
fractional inhibitory concentration index (FICI) (Candida albicans [2]): 0.25 - 0.313
fractional inhibitory concentration index (FICI) (Candida albicans [3]): 0.25 - 0.313
fractional inhibitory concentration index (FICI) (Saccharomyces cerevisiae [4]): 0.25 - 0.313
fractional inhibitory concentration index (FICI) (Saccharomyces cerevisiae [5]): 0.25 - 0.313

SMILES: CCc1cccc(C)c1NS(=O)(=O)c1nc2nc(C)cc(C3CC3)n2n1
MIC50 (Candida albicans [6]): 1 µg/mL (≈ 2.69 µM)
MIC50 (Cryptococcus neoformans): 4 µg/mL (≈ 10.8 µM)
MIC50 (Aspergillus fumigatus [7]): 4 µg/mL (≈ 10.8 µM)
IC30 (Saccharomyces cerevisiae [8]): 4.2 µM

SMILES: COC(=O)C1=C(C)NC(C)=C(C(=O)OC2CCCN(Cc3ccccc3)C2)C1c1cccc([N+](=O)[O-])c1 (stereo unspecified)
fractional inhibitory concentration index (FICI) (Candida albicans [9]): 0.017 to 0.035
fractional inhibitory concentration index (FICI) (Candida albicans [10]): 0.017 to 0.035

SMILES: CC1=C(O)C(=O)C=C2C1=CC=C1[C@@]2(C)CC[C@@]2(C)[C@@H]3C[C@](C)(C(=O)O)CC[C@]3(C)CC[C@]12C [CELASTROL]
MIC (Aspergillus fumigatus [11]): 2 µM (≈ 0.901 µg/mL)

SMILES: COc1ccc2cc1Oc1ccc(cc1)C[C@@H]1c3cc(c(OC)cc3CCN1C)Oc1c(OC)c(OC)cc3c1[C@H](C2)N(C)CC3 [ISOTETRANDRINE]
MIC80 (Candida albicans [12]): 64 µg/mL (≈ 103 µM)
MIC80 (Candida albicans [13]): 64 µg/mL (≈ 103 µM)
MIC80 (Candida albicans [14]): 64 µg/mL (≈ 103 µM)
MIC80 (Candida albicans [15]): 64 µg/mL (≈ 103 µM)
MIC80 (Candida albicans [16]): 64 µg/mL (≈ 103 µM)
MIC80 (Candida albicans [17]): 64 µg/mL (≈ 103 µM)
MIC80 (Candida albicans [18]): 64 µg/mL (≈ 103 µM)
MIC80 (Candida albicans [19]): 64 µg/mL (≈ 103 µM)
MIC80 (Candida albicans [20]): 64 µg/mL (≈ 103 µM)
MIC80 (Candida albicans [21]): 64 µg/mL (≈ 103 µM)
MIC80 (Candida albicans [22]): 64 µg/mL (≈ 103 µM)
MIC80 (Candida albicans [23]): 64 µg/mL (≈ 103 µM)
MIC80 (Candida albicans [24]): 64 µg/mL (≈ 103 µM)
MIC80 (Candida albicans [25]): 64 µg/mL (≈ 103 µM)
MIC80 (Candida albicans [26]): 64 µg/mL (≈ 103 µM)
MIC80 (Candida albicans [27]): 64 µg/mL (≈ 103 µM)
MIC80 (Candida albicans [28]): 64 µg/mL (≈ 103 µM)

SMILES: CCCCCCCCCCCCCCCCOP(=O)([O-])OCC[N+](C)(C)C [MILTEFOSINE]
MIC (Candida albicans [31]): 0.5 to 2 µg/mL (≈ 1.23 to 4.91 µM)
MIC (Candida albicans [32]): 0.5 to 2 µg/mL (≈ 1.23 to 4.91 µM)
MIC (Candida albicans [33]): 0.5 to 2 µg/mL (≈ 1.23 to 4.91 µM)
MIC (Candida albicans [34]): 0.5 to 2 µg/mL (≈ 1.23 to 4.91 µM)
MIC (Candida albicans [35]): 0.5 to 2 µg/mL (≈ 1.23 to 4.91 µM)
MIC (Candida albicans [36]): 0.5 to 2 µg/mL (≈ 1.23 to 4.91 µM)
MIC (Candida albicans [37]): 0.5 to 2 µg/mL (≈ 1.23 to 4.91 µM)
MIC (Candida albicans [38]): 0.5 to 2 µg/mL (≈ 1.23 to 4.91 µM)
MIC (Candida albicans [39]): 0.5 to 2 µg/mL (≈ 1.23 to 4.91 µM)
MIC (Candida albicans [40]): 0.5 to 2 µg/mL (≈ 1.23 to 4.91 µM)
MIC (Candida albicans [41]): 0.5 to 2 µg/mL (≈ 1.23 to 4.91 µM)
MIC (Candida albicans [42]): 0.5 to 2 µg/mL (≈ 1.23 to 4.91 µM)
MIC (Candida albicans [43]): 0.5 to 2 µg/mL (≈ 1.23 to 4.91 µM)
inhibition (INH) (Candida albicans [44]): 90%
inhibition (INH) (Candida albicans [45]): >90%

SMILES: CC[C@@H](C)[C@@H](O)[C@H](C)C(=O)[C@H](C)/C=C(\C)C[C@H](C)C1OC(=O)[C@H]1C (stereo partly specified)
MIC (Candida albicans [29]): 64 µg/mL (≈ 189 µM)

The next lines start with the values.

MIC90 (Candida albicans [29]): 0.72 µg/mL (≈ 1.57 µM)
SMILES: CCOC(=O)c1ccccc1S(=O)(=O)NC(=O)Nc1nc(Br)cc(OC)n1

Ki [30]: 300 µM
SMILES: Nc1ccc(O)c2c1C(=O)c1c(O)ccc(N)c1C2=O

fractional inhibitory concentration index (FICI) (Candida albicans [9]): 0.017 to 0.035
fractional inhibitory concentration index (FICI) (Candida albicans [10]): 0.017 to 0.035
SMILES: Fc1ccc(C(c2ccc(F)cc2)N2CCN(C/C=C/c3ccccc3)CC2)cc1

MIC (Kluyveromyces marxianus): 6.25 to 12.5 µg/mL (≈ 42.5 to 85 µM)
SMILES: N[C@@H](CC(=O)CO)C(=O)O

MIC (Candida tropicalis): 1000 µg/mL (≈ 3220 µM)
SMILES: COC(=O)c1ccc(C[C@@H](C(=O)OC)[C@@H](O)C(=O)OC)cc1

From ChEMBL document CHEMBL4190370, “Emerging New Targets for the Treatment of Resistant Fungal Infections” (J Med Chem, 2018)
